Test results: patent US8143393B2, “Substituted 4-amino-pyrrolotriazine derivatives useful for treating hyper-proliferative disorders and diseases associated with angiogenesis” (Bayer HealthCare LLC, priority 2005, dated 2012)

Experiments:
[1] = tested on: histone 3 phosphorylation in colon carcinoma (HCT116); test: p-Histone3 assay; type: cell-based; conditions: Homo sapiens, HCT-116, 24 h, HCT116, 24 h treatment
Experimental: Compounds were assayed for the inhibition of histone 3 phosphorylation in colon carcinoma (HCT116). Briefly, 20,000 cells/well were seeded in a 96-well black-walled, poly-d-lysine plates in RPMI+10% FBS and incubated at 37° C. in 5% CO2 overnight. The following day, the cells were treated with compounds for 24 hours at 37° C. Following compound treatment; plates were centrifuged at 1000 rpm for 2 minutes and washed twice with 100 μl of cold sterile TBS. Cells were then fixed with cold 3.7% formaldehyde in TBS (4° C. for 1 hour) and then permeabolized with 0.1% Triton-X-100 in TBS (room temperature for 30 minutes). Plates were then washed with of 0.25% BSA-TBS and blocked with BSA solution for 1 hour at room temperature while shaking. The supernatant was removed and replaced with diluted primary antibody (anti-phospho-histone 3, serine 10, Cell Signaling) at 1:250 in 0.25% BSA-TBS and incubated overnight at 4° C. The plates were washed and treated with diluted secondary antibody (anti-rabbit Eu-labeled) at 1:10000 in 0.25% BSA-TBS (room temperature for 1 hour). The antibody solution was removed from each well and washed eight times. The wash buffer was replaced with 50 μl pre-warmed enhancement solution and mixed on the orbital shaker for 10 minutes. Fluorescence was detected with a Victor V Fluorescence Detector. The data are expressed as percent inhibition: % inhibition=100−((Signal with inhibitor−background)/(Signal without inhibitor−background))−100.

[2] = molecular target: T1, FGFR-1 (Homo sapiens, UniProt P11362); test: FGFR-1 TR-FRET biochemical assay; conditions: 0.6 uM ATP, 5 nM FGFR1-GST; bounds given in nM
T1 construct: GST; made in house
T1 sequence (P11362 22-822): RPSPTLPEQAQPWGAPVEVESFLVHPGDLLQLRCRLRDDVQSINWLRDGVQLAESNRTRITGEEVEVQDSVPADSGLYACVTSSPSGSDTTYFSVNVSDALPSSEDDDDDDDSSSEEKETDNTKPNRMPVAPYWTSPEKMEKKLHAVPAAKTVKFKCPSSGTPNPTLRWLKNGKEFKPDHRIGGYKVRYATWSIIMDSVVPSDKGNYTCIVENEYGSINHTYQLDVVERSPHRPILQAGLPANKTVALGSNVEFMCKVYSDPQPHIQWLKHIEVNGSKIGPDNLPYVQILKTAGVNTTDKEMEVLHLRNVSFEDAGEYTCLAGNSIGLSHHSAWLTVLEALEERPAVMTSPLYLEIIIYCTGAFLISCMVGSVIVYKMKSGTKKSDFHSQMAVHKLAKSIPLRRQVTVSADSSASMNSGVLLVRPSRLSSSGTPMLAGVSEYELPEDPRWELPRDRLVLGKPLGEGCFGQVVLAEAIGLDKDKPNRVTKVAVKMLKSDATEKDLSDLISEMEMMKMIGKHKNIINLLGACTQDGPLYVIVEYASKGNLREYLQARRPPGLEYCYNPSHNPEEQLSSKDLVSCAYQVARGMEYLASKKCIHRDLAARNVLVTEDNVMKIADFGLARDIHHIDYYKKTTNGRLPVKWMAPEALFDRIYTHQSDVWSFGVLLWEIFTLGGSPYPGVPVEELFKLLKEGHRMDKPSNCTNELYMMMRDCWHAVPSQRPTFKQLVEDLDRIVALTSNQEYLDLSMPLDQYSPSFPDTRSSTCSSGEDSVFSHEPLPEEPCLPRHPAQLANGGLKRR
Method in brief: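 FGFR1-GST (5 nM) was incubated with poly GT-biotin (25 nM) and 0.6 uM ATP in HEPES pH 7.5/MgCl2 with 1% DMSO for 1 h at room temperature. Phosphorylation was read by LANCE TR-FRET (Eu-anti-pTyr/SA-APC, 665/615 ratio). Percent inhibition was background-corrected against no-ATP wells, with final compound concentrations of 10 μM–0.128 nM.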

[3] = lower bound of the bin 'greater than 500 nM but less than 5 μM'

IC50 ([1]; bounds given in μM)	IC50 [1, 3]	IC50 [2]	Structure (SMILES)
< 5 µM	> 0.5 µM		Nc1ncnn2c(CO)cc(-c3ccc(NC(=O)Nc4cccc(C(F)(F)F)n4)cc3)c12 [Example 105, N-{4-[4-amino-7-(hydroxymethyl)pyrrolo[2,1-f][1,2,4]triazin-5-yl]phenyl}-N′-[6-(trifluoromethyl)pyridin-2-yl]urea]
< 5 µM	> 0.5 µM		CC(=O)N1CCN(Cc2cc(-c3ccc(NC(=O)Nc4cccc(Br)n4)cc3)c3c(N)ncnn23)CC1 [Example 93, N-(4-7-[(4-acetylpiperazin-1-yl)methyl]-4-aminopyrrolo[2,1-f][1,2,4]triazin-5-ylphenyl)-N′-(6-bromopyridin-2-yl)urea]
< 5 µM	> 0.5 µM		Nc1ncnn2c(CN3CCNCC3)cc(-c3ccc(NC(=O)Nc4cccc(Br)n4)cc3)c12 [Example 91, N-4-[4-amino-7-(piperazin-1-ylmethyl)pyrrolo[2,1-f][1,2,4]-triazin-5-yl]phenyl-N′-(6-bromopyridin-2-yl)urea]
< 5 µM	> 0.5 µM	< 10 nM	Nc1ncnn2c(CN3CCOCC3)cc(-c3cc(F)c(NC(=O)Nc4cc(C(F)(F)F)ccc4F)cc3F)c12 [Example 15, N-{4-[4-amino-7-(morpholin-4-ylmethyl)pyrrolo[2,1-f][1,2,4]triazin-5-yl]-2,5-difluorophenyl}-N′-[2-fluoro-5-(trifluoromethyl)phenyl]urea]
5 to 10 µM		10 to 100 nM	COc1ccc(C(C)(C)C)cc1NC(=O)Nc1ccc(-c2cc(CN3CCOCC3)n3ncnc(N)c23)cc1 [Example 44, N-{4-[4-amino-7-(morpholin-4-ylmethyl)pyrrolo[2,1-f][1,2,4]triazin-5-yl]phenyl}-N′-(5-tert-butyl-2-methoxyphenyl)urea]
5 to 10 µM			Nc1ncnn2c(CN3CCOCC3)cc(-c3ccc(NC(=O)Nc4cccc(Br)n4)c(F)c3)c12 [Example 73, N-4-[4-amino-7-(morpholin-4-ylmethyl)pyrrolo[2,1-f][1,2,4]-triazin-5-yl]-2-fluorophenyl-N′-(6-bromopyridin-2-yl)urea]
< 5 µM	> 0.5 µM	< 10 nM	Cc1cc(-c2cc(CN3CCOCC3)n3ncnc(N)c23)ccc1NC(=O)Nc1cc(C(F)(F)F)ccc1F [Example 25, N-{4-[4-amino-7-(morpholin-4-ylmethyl)pyrrolo[2,1-f][1,2,4]triazin-5-yl]-2-methylphenyl}-N′-[2-fluoro-5-(trifluoromethyl)phenyl]urea]
< 5 µM	> 0.5 µM	10 to 100 nM	CS(=O)(=O)N1CCN(Cc2cc(-c3ccc(NC(=O)Nc4cc(C(F)(F)F)ccc4F)cc3)c3c(N)ncnn23)CC1 [Example 83, N-[4-(4-amino-7{[4(methylsulfonyl)-piperazin-1-yl]methyl}pyrrolo[2,1-f][1,2,4]triazin-5-yl)phenyl]-N′-[2-fluoro-5-(trifluoromethyl)phenyl]urea]
< 5 µM	> 0.5 µM		CS(=O)(=O)N1CCN(Cc2cc(-c3ccc(NC(=O)Nc4cccc(Br)n4)cc3)c3c(N)ncnn23)CC1 [Example 94, N-[4-(4-amino-7-[4-(methylsulfonyl)piperazin-1-yl]methylpyrrolo[2,1-f][1,2,4]triazin-5-yl)phenyl]-N′-(6-bromopyridin-2-yl)urea]
< 5 µM	> 0.5 µM		CC(=O)N1CCN(Cc2cc(-c3ccc(NC(=O)Nc4cc(C(F)(F)F)ccc4F)cc3)c3c(N)ncnn23)CC1 [Example 87, N-(4-{7-[(4-acetylpiperazin-1-yl)methyl]-4-aminopyrrolo[2,1-f][1,2,4]triazin-5-yl}phenyl)-N′-[2-fluoro-5-(trifluoromethyl)phenyl]urea]
5 to 10 µM			COc1cccc(NC(=O)Nc2ccc(-c3cc(CN4CCOCC4)n4ncnc(N)c34)cc2F)n1 [Example 72, N-4-[4-amino-7-(morpholin-4-ylmethyl)pyrrolo[2,1-f][1,2,4]triazin-5-yl]-2-fluorophenyl-N′-(6-methoxypyridin-2-yl)urea]
		< 10 nM	Nc1ncnn2c(CN3CCS(=O)(=O)CC3)cc(-c3ccc(NC(=O)Nc4cccc(C(F)(F)F)c4)c(F)c3)c12 [Example 77, N-(4-{4-amino-7-[(1,1-dioxidothiomorpholin-4-yl)methyl]pyrrolo[2,1-f][1,2,4]triazin-5-yl}-2-fluorophenyl)-N′-[3-(trifluoromethyl)phenyl]urea]
		10 to 100 nM	Nc1ncnn2c(CN3CCOCC3)cc(-c3ccc(NC(=O)Nc4cccc(C(F)(F)F)c4F)nc3)c12 [Example 21, N-{5-[4-amino-7-(morpholin-4-ylmethyl)pyrrolo[2,1-f][1,2,4]triazin-5-yl]pyridin-2-yl}-N′-[2-fluoro-3-(trifluoromethyl)phenyl]urea]
		< 10 nM	CC(=O)c1cc(-c2ccc(NC(=O)Nc3cc(C(F)(F)F)ccn3)c(F)c2)c2c(N)ncnn12 [Example 259, N-[4-(7-acetyl-4-aminopyrrolo[2,1-f][1,2,4]triazin-5-yl)-2-fluorophenyl]-N′-[4-(trifluoromethyl)pyridin-2-yl]urea]
		< 10 nM	Nc1ncnn2c(CN3CCOCC3)cc(-c3ccc(NC(=O)Nc4cc(C(F)(F)F)cc[n+]4[O-])c(F)c3)c12 [Example 287, N-{4-[4-amino-7-(morpholin-4-ylmethyl)pyrrolo[2,1-f][1,2,4]triazin-5-yl]-2-fluorophenyl}-N′-[1-oxido-4-(trifluoromethyl)pyridin-2-yl]urea]
		10 to 100 nM	Nc1ncnn2c(C3CCN(C(=O)CN4CCOCC4)CC3)cc(-c3ccc(NC(=O)Nc4cc(C(F)(F)F)ccc4F)c(F)c3)c12 [Example 115, N-(4-4-amino-7-[1-(morpholin-4-ylacetyl)piperidin-4-yl]pyrrolo[2,1-f][1,2,4]triazin-5-yl-2-fluorophenyl)-N′-[2-fluoro-5-(trifluoromethyl)-phenyl]urea]
5 to 10 µM			Cc1ccc(F)c(NC(=O)Nc2ccc(-c3cc(CN4CCOCC4)n4ncnc(N)c34)cc2)c1 [Example 46, N-{4-[4-amino-7-(morpholin-4-ylmethyl)pyrrolo[2,1-f][1,2,4]triazin-5-yl]phenyl}-N′-(2-fluoro-5-methylphenyl)urea]
		< 10 nM	Cc1cc(-c2cc(CN3CCOCC3)n3ncnc(N)c23)ccc1NC(=O)Nc1cc(F)cc(C(F)(F)F)c1 [Example 28, N-{4-[4-amino-7-(morpholin-4-ylmethyl)pyrrolo[2,1-f][1,2,4]triazin-5-yl]-2-methylphenyl}-N′-[3-fluoro-5-(trifluoromethyl)phenyl]urea]
		10 to 100 nM	Nc1ncnn2c(C3CCN(C(=O)C4CC4)CC3)cc(-c3ccc(NC(=O)Nc4cc(C(F)(F)F)ccc4F)c(Cl)c3)c12 [Example 230, N-(4-{4-amino-7-[1-(cyclopropylcarbonyl)piperidin-4-yl]pyrrolo[2,1-f][1,2,4]triazin-5-yl}-2-chlorophenyl)-N′-[2-fluoro-5-(trifluoromethyl)phenyl]urea]
5 to 10 µM			Nc1ncnn2c(CN3CCOCC3)cc(-c3ccc(NC(=O)Nc4ccc(C(F)(F)F)cn4)cc3)c12 [Example 56, N-{4-[4-amino-7-(morpholin-4-ylmethyl)pyrrolo[2,1-f][1,2,4]-triazin-5-yl]phenyl}-N′-[5-(trifluoromethyl)pyridin-2-yl]urea]
